Among the data in patent US10988459B2 (priority 2015, dated 2021) are Ki values, retold here.

This assay concerns the target human RIP1 kinase domain (2-375) (Homo sapiens (Human), UniProt Q13546). In words: biochemical. It is filed as biochemical. The note with it: tight-binding apparent inhibition constant; human RIP1 kinase domain (2-375) 50 nM, 50 uM ATP, 2 hours; read-out: Ki. The method in brief:
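50 nM purified kinase domain from baculovirus-infected insect cells, incubated 2 h with compound in 50 mM Hepes pH 7.5, 30 mM MgCl2, 1 mM DTT, 50 uM ATP, 0.002% Brij-35, 0.5% DMSO. ADP formation read by Transcreener FP at 633 nm excitation. Ki^app fitted with the Morrison tight-binding equation.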

human RIP1 kinase domain (2-375), sequence (Q13546 2-375): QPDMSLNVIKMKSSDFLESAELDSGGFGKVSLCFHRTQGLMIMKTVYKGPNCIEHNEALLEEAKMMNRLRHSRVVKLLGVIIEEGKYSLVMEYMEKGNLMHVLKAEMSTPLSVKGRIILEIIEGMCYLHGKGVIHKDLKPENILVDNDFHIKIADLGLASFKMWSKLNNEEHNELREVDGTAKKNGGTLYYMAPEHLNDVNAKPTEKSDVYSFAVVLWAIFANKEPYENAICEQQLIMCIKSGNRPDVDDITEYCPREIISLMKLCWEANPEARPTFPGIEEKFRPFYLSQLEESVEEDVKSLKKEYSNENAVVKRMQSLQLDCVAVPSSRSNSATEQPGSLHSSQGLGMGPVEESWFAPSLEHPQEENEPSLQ

On to `CN1C(=O)[C@@H](NC(=O)c2nnc(Cc3cccc(F)c3F)[nH]2)CCn2nc(C3CC3)cc21` [Example 514, 5-[(2,3-difluorophenyl)methyl]-N-(6 S)-2-cyclopropyl-4-methyl-5-oxo-7,8-dihydro-6H-pyrazolo[1,5-a][1,3]diazepin-6-yl-4H-1,2,4-triazole-3-carboxamide], for which the Ki turned out to be 17 nM.

Regarding `CN1C(=O)[C@@H](NC(=O)c2nc3n(n2)CCOC3c2ccccc2)COc2ccccc21` (stereo partly drawn) [Example 515, 8-phenyl-N-[(3S)-5-methyl-4-oxo-2,3-dihydro-1,5-benzoxazepin-3-yl]-6,8-dihydro-5H-[1,2,4]triazolo[5,1-c][1,4]oxazine-2-carboxamide], the Ki turned out to be 29 nM.

Consider `CN1C(=O)[C@@H](NC(=O)c2nc3n(n2)CCO[C@H]3c2ccccc2)COc2ccccc21` [Example 516, (8S)-8-phenyl-N-[(3S)-5-methyl-4-oxo-2,3-dihydro-1,5-benzoxazepin-3-yl]-6,8-dihydro-5H-[1,2,4]triazolo[5,1-c][1,4]oxazine-2-carboxamide], for which the Ki is 18 nM. Next, `CN1C(=O)[C@@H](NC(=O)c2nc3n(n2)CCO[C@@H]3c2ccccc2)COc2ccccc21` [Example 517, (8R)-8-phenyl-N-[(3S)-5-methyl-4-oxo-2,3-dihydro-1,5-benzoxazepin-3-yl]-6,8-dihydro-5H-[1,2,4]triazolo[5,1-c][1,4]oxazine-2-carboxamide]: 660 nM; `Cc1cc2n(n1)CC[C@H](NC(=O)c1ncn(Cc3ccccc3F)n1)C(=O)N2C` [Example 518, 1-[(2-fluorophenyl)methyl]-N-(6S)-2,4-dimethyl-5-oxo-7,8-dihydro-6H-pyrazolo[1,5-a][1,3]diazepin-6-yl-1,2,4-triazole-3-carboxamide]: 7.5 nM; `Cc1cc2n(n1)CC[C@H](NC(=O)c1ncn(Cc3cccc(F)c3)n1)C(=O)N2C` [Example 519, 1-[(3-fluorophenyl)methyl]-N-(6S)-2,4-dimethyl-5-oxo-7,8-dihydro-6H-pyrazolo[1,5-a][1,3]diazepin-6-yl-1,2,4-triazole-3-carboxamide]: 11 nM. Next, `Cc1cc2n(n1)CC[C@H](NC(=O)c1ncn(Cc3ccccc3Cl)n1)C(=O)N2C` [Example 520, 1-[(2-chlorophenyl)methyl]-N-(6S)-2,4-dimethyl-5-oxo-7,8-dihydro-6H-pyrazolo[1,5-a][1,3]diazepin-6-yl-1,2,4-triazole-3-carboxamide]: 6 nM; `Cc1cc2n(n1)CC[C@H](NC(=O)c1ncn(Cc3cccc(Cl)c3)n1)C(=O)N2C` [Example 521, 1-[(3-chlorophenyl)methyl]-N-(6S)-2,4-dimethyl-5-oxo-7,8-dihydro-6H-pyrazolo[1,5-a][1,3]diazepin-6-yl-1,2,4-triazole-3-carboxamide]: 6.9 nM. Consider `CN1C(=O)[C@@H](NC(=O)c2ncn(Cc3ccccc3Cl)n2)CCn2nc(C3CC3)cc21` [Example 522], for which the Ki came out at 3.5 nM. As for `CN1C(=O)[C@@H](NC(=O)c2ncn(Cc3cccc(F)c3F)n2)CCn2nc(C(F)(F)F)cc21` [Example 523, 1-[(2,3-difluorophenyl)methyl]-N-(6S)-4-methyl-5-oxo-2-(trifluoromethyl)-7,8-dihydro-6H-pyrazolo[1,5-a][1,3]diazepin-6-yl-1,2,4-triazole-3-carboxamide], the Ki turned out to be 13 nM.

Take `CN1C(=O)[C@@H](NC(=O)c2nnc(Cc3cccc(F)c3F)[nH]2)CCn2nc(C(F)(F)F)cc21` [Example 524]: the Ki was 72 nM. For `CN1C(=O)[C@@H](NC(=O)c2ncn(Cc3ccc(F)cc3)n2)CCn2nc(C(F)(F)F)cc21` [Example 525] the value was 46 nM; for `CN1C(=O)[C@@H](NC(=O)c2ncn(Cc3ccccc3F)n2)CCn2nc(C(F)(F)F)cc21` [Example 526], 20 nM. Turning to `CN1C(=O)[C@@H](NC(=O)c2ncn(Cc3cccc(F)c3)n2)CCn2nc(C(F)(F)F)cc21` [Example 527], the Ki stood at 23 nM. As to `CN1C(=O)[C@@H](NC(=O)c2ncn(Cc3ccccc3Cl)n2)CCn2nc(C(F)(F)F)cc21` [Example 528], the Ki is 4.8 nM.

With `CN1C(=O)[C@@H](NC(=O)c2ncn(Cc3ccc(F)cc3F)n2)CCn2nc(C(F)(F)F)cc21` [Example 529], the Ki was 28 nM. `CN1C(=O)[C@@H](NC(=O)c2ncn(Cc3cccc(F)c3)n2)CCn2nc(C3CC3)cc21` [Example 531]: the Ki came to 14 nM. Consider `CN1C(=O)[C@@H](NC(=O)c2ncn(Cc3ccc(Cl)cc3)n2)CCn2nc(C(F)(F)F)cc21` [Example 532], for which the Ki worked out at 24 nM. For `CN1C(=O)[C@@H](NC(=O)c2ncn(Cc3cccc(Cl)c3)n2)CCn2nc(C(F)(F)F)cc21` [Example 533] the value was 45 nM; for `CN1C(=O)[C@@H](NC(=O)c2ncn(Cc3cccc(Cl)c3Cl)n2)CCn2nc(C(F)(F)F)cc21` [Example 534], 7.6 nM. For `Cc1cn2c(n1)N(C)C(=O)C(NC(=O)c1ncn(Cc3ccccc3)n1)CC2` (stereo not shown) [Example 535, 1-benzyl-N-(2,9-dimethyl-8-oxo-6,7,8,9-tetrahydro-5H-imidazo[1,2-a][1,3]diazepin-7-yl)-1H-1,2,4-triazole-3-carboxamide] the value was 130 nM; for `CN1C(=O)[C@@H](NC(=O)c2ncc3cnn(-c4ccccc4)c3n2)COc2ccccc21` [Example 536, phenyl-N-[(3S)-5-methyl-4-oxo-2,3-dihydro-1,5-benzoxazepin-3-yl]pyrazolo[3,4-d]pyrimidine-6-carboxamide], 3.5 nM. Regarding `CN1C(=O)[C@@H](NC(=O)c2nccc(C3(O)CCC3)n2)COc2ccccc21` [Example 537, 4-(1-hydroxycyclobutyl)-N-[(3S)-5-methyl-4-oxo-2,3-dihydro-1,5-benzoxazepin-3-yl]pyrimidine-2-carboxamide], the Ki came to 2100 nM. For the molecule `CN1C(=O)[C@@H](NC(=O)c2ncn(Cc3cccc(Cl)c3)n2)CCn2nc(C3CC3)cc21` [Example 538], the Ki worked out at 19 nM. With `Cc1cc2n(n1)CC[C@H](NC(=O)c1ncc3cnn(C(C)C)c3n1)C(=O)N2C` [Example 539, 1-isopropyl-N-[(6S)-2,4-dimethyl-5-oxo-7,8-dihydro-6H-pyrazolo[1,5-a][1,3]diazepin-6-yl]pyrazolo[3,4-d]pyrimidine-6-carboxamide], the Ki is 150 nM. With `Cc1cc2n(n1)CC[C@H](NC(=O)c1ncc3cnn(-c4ccccc4)c3n1)C(=O)N2C` [Example 540, 1-phenyl-N-[(6S)-2,4-dimethyl-5-oxo-7,8-dihydro-6H-pyrazolo[1,5-a][1,3]diazepin-6-yl]pyrazolo[3,4-d]pyrimidine-6-carboxamide], the Ki came out at 57 nM. Consider `Cc1cc2n(n1)CC[C@H](NC(=O)c1nnn(Cc3ccccc3)n1)C(=O)N2C` [Example 541, 2-benzyl-N-(6S)-2,4-dimethyl-5-oxo-7,8-dihydro-6H-pyrazolo[1,5-a][1,3]diazepin-6-yltetrazole-5-carboxamide], for which the Ki stood at 5 nM.

As to `CN1C(=O)[C@@H](NC(=O)c2nnn(Cc3ccccc3)n2)CCn2nc(C3CC3)cc21` [Example 542], the Ki turned out to be 6.4 nM. As to `Cc1cc2n(n1)CC[C@H](NC(=O)c1ncc3cnn(C4CCCC4)c3n1)C(=O)N2C` [Example 543, 1-cyclopentyl-N-[(6S)-2,4-dimethyl-5-oxo-7,8-dihydro-6H-pyrazolo[1,5-a][1,3]diazepin-6-yl]pyrazolo[3,4-d]pyrimidine-6-carboxamide], the Ki amounted to 68 nM. Take `Cc1cc2n(n1)CC[C@H](NC(=O)c1ncc3c(n1)C1(CCCOC1)OC3)C(=O)N2C` (stereo partly drawn) [Example 544, N-[(6S)-2,4-dimethyl-5-oxo-7,8-dihydro-6H-pyrazolo[1,5-a][1,3]diazepin-6-yl]spiro[5H-furo[3,4-d]pyrimidine-7,3′-tetrahydropyran]-2-carboxamide]: the Ki amounted to 1200 nM.

In the case of `Cc1cc2n(n1)CC[C@H](NC(=O)c1cc3c(cn1)COC31CCCOC1)C(=O)N2C` (stereo partly drawn) [Example 545, N-[(6S)-2,4-dimethyl-5-oxo-7,8-dihydro-6H-pyrazolo[1,5-a][1,3]diazepin-6-yl]spiro[3H-furo[3,4-c]pyridine-1,3′-tetrahydropyran]-6-carboxamide], the Ki amounted to 2100 nM. With `Cc1cnc2n1CCC(NC(=O)c1ncn(Cc3ccccc3)n1)C(=O)N2C` (stereo not shown) [Example 546, 1-benzyl-N-(3,9-dimethyl-8-oxo-6,7-dihydro-5H-imidazo[1,2-a][1,3]diazepin-7-yl)-1,2,4-triazole-3-carboxamide], the Ki amounted to 220 nM.

For `CN1C(=O)[C@@H](NC(=O)c2ncn(Cc3ccccc3)n2)CCn2nc(C[C@H]3CC3(F)F)cc21` [Example 547, 1-benzyl-N-(6S)-4-methyl-5-oxo-2-[(1 S)-2,2-difluorocyclopropylmethyl]-7,8-dihydro-6H-pyrazolo[1,5-a][1,3]diazepin-6-yl-1,2,4-triazole-3-carboxamide], the Ki is 8.5 nM. Take `CN1C(=O)[C@@H](NC(=O)c2ncn(Cc3ccccc3)n2)CCn2nc(C[C@@H]3CC3(F)F)cc21` [Example 548, 1-benzyl-N-(6S)-4-methyl-5-oxo-2-[(1R)-2,2-difluorocyclopropylmethyl]-7,8-dihydro-6H-pyrazolo[1,5-a][1,3]diazepin-6-yl-1,2,4-triazole-3-carboxamide]: the Ki was 9.7 nM. As for `CCC(C)(O)c1ccnc(C(=O)N[C@H]2COc3ccccc3N(C)C2=O)n1` (stereo partly drawn) [Example 549, 4-(1-hydroxy-1-methyl-propyl)-N-[(3S)-5-methyl-4-oxo-2,3-dihydro-1,5-benzoxazepin-3-yl]pyrimidine-2-carboxamide], the Ki was found to be 3700 nM. For the molecule `CN1C(=O)[C@H](NC(=O)c2nnc(Cc3ccc(F)cc3)[nH]2)CCn2nc(C(F)(F)F)cc21` [Example 550], the Ki came to 210 nM. For `Cc1cc2n(n1)CC[C@H](NC(=O)c1ncc3c(n1)C1(CCOC1)OC3)C(=O)N2C` (stereo partly drawn) [Example 551, N-[(6S)-2,4-dimethyl-5-oxo-7,8-dihydro-6H-pyrazolo[1,5-a][1,3]diazepin-6-yl]spiro[5H-furo[3,4-d]pyrimidine-7,3′-tetrahydrofuran]-2-carboxamide] the value was 960 nM.
